The values below come from PubChem BioAssay (NCI).

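Five compound concentrations were applied to cells in 96-well plates for 48 hours; endpoints were derived by simple linear interpolation of the resulting dose-response curve. GI50 is the concentration that inhibits growth by half. TGI: concentration producing complete growth inhibition.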 Some results are limits rather than exact numbers.

Some test systems named below: RPMI-8226 leukemia; OVCAR-5 ovarian; SW-620 colon; SF-539 CNS; OVCAR-8 ovarian; DU-145 prostate; NCI-H23 lung; KM12 colon.
Holding throughout (assay): inhibition of tumour cell growth, NCI panel, 48 h

With `COc1cc2c(F)nccc2cc1C(=O)N[C@@H](c1ccc(F)c(Cl)c1)[C@@H]1C[C@@H](O)CN1`, the GI50 is 7.72 µM in the assay with RPMI-8226 leukemia; 13.1 µM in the assay with OVCAR-5 ovarian; 6.39 µM in the assay with SW-620 colon; 0.0677 µM in the assay on SF-539 CNS; 13.2 µM in the assay on OVCAR-8 ovarian; 6.84 µM in the assay on DU-145 prostate. The GI50 is 11.1 µM with NCI-H23 lung and 1.69 µM with KM12 colon. Besides, the TGI with RPMI-8226 leukemia is 40.1 µM; in the assay on OVCAR-5 ovarian, 45.6 µM; with SW-620 colon, 23.6 µM; in the assay with SF-539 CNS it was 11.1 µM; in the assay on OVCAR-8 ovarian it was 28.9 µM; in the assay on DU-145 prostate, 24 µM. Besides, the results for the TGI in the assay with NCI-H23 lung and with KM12 colon were 26 µM and 19.3 µM, respectively.

Consider `CCN1C(=O)N(CC)C2C1NN=c1s/c(=C\c3ccccc3F)c(=O)n12` (centres undefined), for which the GI50 with RPMI-8226 leukemia was 0.0415 µM; in the assay with OVCAR-5 ovarian it was 0.0628 µM; with SW-620 colon, 0.0379 µM; in the assay with SF-539 CNS, 0.0236 µM; in the assay on OVCAR-8 ovarian, 0.0357 µM; in the assay on DU-145 prostate it was 0.0398 µM. Moreover, the GI50 in the assay on NCI-H23 lung was 0.0641 µM; in the assay with KM12 colon, 0.0278 µM. In addition, the TGI in the assay on RPMI-8226 leukemia is over 37.7 µM; with OVCAR-5 ovarian, over 100 µM; in the assay with SW-620 colon it was over 100 µM; in the assay with SF-539 CNS it was 0.0696 µM; in the assay with DU-145 prostate, over 100 µM; in the assay on NCI-H23 lung it was over 100 µM. Further, the TGI in the assay on KM12 colon was over 48.9 µM.

With `Cc1ncc(C(=O)Nc2ccc(CN3CCN(C)CC3)c(C(F)(F)F)c2)cc1C#Cc1cnc(N)c2cnccc12`, the GI50 in the assay on RPMI-8226 leukemia was 0.249 µM; with OVCAR-5 ovarian, 0.076 µM; with SW-620 colon it was 0.0649 µM; in the assay with SF-539 CNS it was 0.193 µM; in the assay on OVCAR-8 ovarian, 0.112 µM; in the assay on DU-145 prostate it was 0.0636 µM. In the assay on NCI-H23 lung, the GI50 was 0.0873 µM. For the same compound, the TGI in the assay with RPMI-8226 leukemia was 2.13 µM; in the assay on OVCAR-5 ovarian, 10.6 µM; with SW-620 colon, 1.39 µM; with SF-539 CNS it was 1.29 µM; in the assay on OVCAR-8 ovarian, 16.3 µM; in the assay on DU-145 prostate, 6.91 µM. Also, the TGI in the assay on NCI-H23 lung was determined as 10.5 µM; in the assay with KM12 colon, 11.2 µM.

With `Fc1ccc(-c2nn3c(CNc4ccccc4)nnc3s2)cc1`, the GI50 in the assay with RPMI-8226 leukemia was 6.99 µM; in the assay on OVCAR-5 ovarian it was 30.2 µM; in the assay with SW-620 colon, 40.6 µM; in the assay on SF-539 CNS, 33.6 µM; in the assay on OVCAR-8 ovarian, 34.7 µM; in the assay on DU-145 prostate it was 56.6 µM. Also, the GI50 in the assay on NCI-H23 lung is 27.2 µM; in the assay with KM12 colon, 14.9 µM. For the same compound, the TGI in the assay with RPMI-8226 leukemia, in the assay on OVCAR-5 ovarian, with SW-620 colon, with SF-539 CNS, with OVCAR-8 ovarian and in the assay on DU-145 prostate was over 100 µM each time. Moreover, the TGI with NCI-H23 lung and in the assay on KM12 colon was over 100 µM each time.

Regarding `NC(=O)/C(=C\c1ccncc1)c1cccc2ccccc12`, the TGI with RPMI-8226 leukemia, in the assay with OVCAR-5 ovarian, in the assay with SW-620 colon, in the assay with SF-539 CNS, with OVCAR-8 ovarian and in the assay on DU-145 prostate was over 100 µM throughout. The TGI with NCI-H23 lung and with KM12 colon was over 100 µM each time.

With `CC(C)CCSC1=CC(=O)c2ccccc2C1=O`, the GI50 is 0.0469 µM with RPMI-8226 leukemia; 18.1 µM with OVCAR-5 ovarian; 2.59 µM in the assay with SW-620 colon; 5.74 µM in the assay on SF-539 CNS; 4.56 µM in the assay with OVCAR-8 ovarian; 12.1 µM with DU-145 prostate. Further, the figures for the GI50 in the assay with NCI-H23 lung and with KM12 colon were 14.5 µM and 7.36 µM, respectively. Also, the TGI in the assay with RPMI-8226 leukemia was 0.304 µM; in the assay on OVCAR-5 ovarian, 34 µM; in the assay with SW-620 colon it was 8.91 µM; in the assay on SF-539 CNS, 22.7 µM; with OVCAR-8 ovarian, 17.3 µM; in the assay with DU-145 prostate, 25.8 µM. The TGI with NCI-H23 lung was 34.7 µM; with KM12 colon it was 21.5 µM.

Turning to `COc1ccccc1-c1cc(/C=C2\C(=O)Nc3ncc(Br)cc32)cc(Br)c1O`, the GI50 with RPMI-8226 leukemia is 9.59 µM; in the assay on OVCAR-5 ovarian, over 25 µM; with SW-620 colon it was 19.4 µM; in the assay with SF-539 CNS it was over 19.3 µM; in the assay on OVCAR-8 ovarian, over 19.1 µM; in the assay with DU-145 prostate it was 17.6 µM. Also, the GI50 in the assay on NCI-H23 lung was 10.5 µM; with KM12 colon, 4.43 µM. The TGI in the assay with RPMI-8226 leukemia, in the assay on OVCAR-5 ovarian, in the assay on SW-620 colon, in the assay on SF-539 CNS, in the assay on OVCAR-8 ovarian and in the assay on DU-145 prostate was over 25 µM each time. Besides, the TGI with NCI-H23 lung and in the assay on KM12 colon was over 25 µM each time.

Turning to `CC(C)CC1C(=O)N2CCC[C@H]2C2(O)O[C@](NC(=O)C3C=C4c5cccc6[nH]c(Br)c(c56)C[C@H]4N(C)C3)(C(C)C)C(=O)N12` (some centres undefined), the TGI in the assay with RPMI-8226 leukemia, in the assay on OVCAR-5 ovarian, with SW-620 colon, in the assay with SF-539 CNS, in the assay on OVCAR-8 ovarian and in the assay with DU-145 prostate was over 100 µM throughout. Also, the TGI with NCI-H23 lung and in the assay with KM12 colon was over 100 µM throughout. The GI50 was 9.23 µM in the assay with SW-620 colon, 8.22 µM in the assay on NCI-H23 lung and 6.23 µM in the assay on KM12 colon.

As for `NCCCCCCCCn1c2c(c3ccccc3c1=O)C(=O)c1ccccc1-2`, the GI50 with RPMI-8226 leukemia was 4.02 µM; in the assay on OVCAR-5 ovarian, 2.67 µM; in the assay on SW-620 colon, 1.8 µM; in the assay on SF-539 CNS it was 2.84 µM; with OVCAR-8 ovarian it was 3.98 µM; in the assay with DU-145 prostate it was 3.4 µM. Also, the figures for the GI50 in the assay on NCI-H23 lung and with KM12 colon were 4.57 µM and 2.12 µM, respectively. Moreover, the TGI in the assay on RPMI-8226 leukemia is 23.7 µM; with OVCAR-5 ovarian, 7.89 µM; with SW-620 colon it was 3.34 µM; with SF-539 CNS, 8.62 µM; in the assay on OVCAR-8 ovarian, over 100 µM; in the assay with DU-145 prostate, 14 µM. Besides, the TGI in the assay with NCI-H23 lung is 21.6 µM; in the assay with KM12 colon, 4.59 µM.
